Legend:
[1] = Dissolution test in fasted state simulated intestinal fluid; type: physicochemical; details: for CONCENTRATION (dissolution): fasted state simulated intestinal fluid pH 6.5, 37° C., 50 rpm, in terms of compound (I); for concentration achieved relative to the concentration of compound (I): dissolution test, fasted state simulated intestinal fluid
Procedure: Each of compound (I) (50 mg), the compound of Example 1 (30 mg) and the compound of Example 2 (30 mg) was filled into a hydroxypropyl methylcellulose capsule, together with an equal weight of lactose hydrate. A 708-DS from Agilent Technologies was equipped with small stirring paddles and small vessels, and used as a dissolution test apparatus. Each drug-filled capsule was added to 50 ml of fasted state simulated intestinal fluid (a phosphate buffer pH 6.5 containing 0.75 mM lecithin and 3 mM sodium taurocholate) which had been warmed to 37° C. The drug was dissolved by rotating the stirring paddle at a speed of 50 rpm. The dissolved solution was sampled over time and the drug concentrations were measured by HPLC. Such dissolution tests using fasted state simulated intestinal fluid are often used to evaluate the dissolution and absorption characteristics of drugs (e.g., Takano et al., “Oral absorption of poorly water-soluble drugs: computer simulation of fraction absorbed in humans from a miniscale dissolution test”, Pharm Res., vol. 23, pp. 1144-1156, 2006). The results were shown in Table 1 and the graph in FIG. 12.

[2] = Test on oral absorption characteristics in dogs; type: in vivo, beagle dogs; details: for AREA UNDER PLASMA CONCENTRATION-TIME CURVE, MEAN: mean of 4 beagle dogs; for PLASMA CONCENTRATION MEAN: mean of dogs

In the case of `COc1ncc(C)c(-c2ccc3c(c2)[nH]c(=O)c2cnn([C@H]4CCOC4)c23)c1C.O=S(=O)(O)c1ccccc1` [Example 2, (S)-7-(2-methoxy-3,5-dimethylpyridin-4-yl)-1-(tetrahydrofuran-3-yl)-1H-pyrazolo[4,3-c]quinolin-4(5H)-one Monobenzenesulfonate Salt], the “CONCENTRATION (dissolution)” value ([1]; 6 minutes) is reported as 0 ng/mL, the “CONCENTRATION (dissolution)” value ([1]; 10 minutes) is reported as 500 ng/mL and the “CONCENTRATION (dissolution)” value ([1]; 15 minutes) is reported as 7300 ng/mL. For the same compound, the “CONCENTRATION (dissolution)” value ([1]; 20 minutes) was 9300 ng/mL, the “CONCENTRATION (dissolution)” value ([1]; 30 minutes) was 10200 ng/mL and the “CONCENTRATION (dissolution)” value ([1]; 60 minutes) was 10700 ng/mL. For the same compound, the “CONCENTRATION (dissolution)” value ([1]; 90 minutes) was 10600 ng/mL, the “CONCENTRATION (dissolution)” value ([1]; 120 minutes) was 10700 ng/mL and the “CONCENTRATION (dissolution)” value ([1]; 180 minutes) was 9400 ng/mL. For the same compound, the “CONCENTRATION (dissolution)” value ([1]; 240 minutes) was 9000 ng/mL and the “concentration achieved relative to the concentration of compound (I)” value [1] was “about 2 fold”.

With `COc1ncc(C)c(-c2ccc3c(c2)[nH]c(=O)c2cnn([C@H]4CCOC4)c23)c1C.O=C(O)/C=C\C(=O)O` [Example 1, (S)-7-(2-methoxy-3,5-dimethylpyridin-4-yl)-1-(tetrahydrofuran-3-yl)-1H-pyrazolo[4,3-c]quinolin-4(5H)-one Monomaleate Salt] the “CONCENTRATION (dissolution)” value ([1]; 6 minutes) was 6400 ng/mL, the “CONCENTRATION (dissolution)” value ([1]; 10 minutes) was 11800 ng/mL and the “CONCENTRATION (dissolution)” value ([1]; 15 minutes) was 20800 ng/mL. For the same compound, the “CONCENTRATION (dissolution)” value ([1]; 20 minutes) was 23300 ng/mL, the “CONCENTRATION (dissolution)” value ([1]; 30 minutes) was 27900 ng/mL and the “CONCENTRATION (dissolution)” value ([1]; 60 minutes) was 25000 ng/mL. For the same compound, the “CONCENTRATION (dissolution)” value ([1]; 90 minutes) was 23900 ng/mL, the “CONCENTRATION (dissolution)” value ([1]; 120 minutes) was 22100 ng/mL and the “CONCENTRATION (dissolution)” value ([1]; 180 minutes) was 18800 ng/mL. The “CONCENTRATION (dissolution)” value ([1]; 240 minutes) was 18800 ng/mL, the “concentration achieved relative to the concentration of compound (I)” value [1] was 4- to 5 fold and the “PLASMA CONCENTRATION” value ([2]; Dog 1, 0.25 hours, oral capsule, 100 mg in terms of the free form) was “BQL”. For the same compound, the “PLASMA CONCENTRATION” value ([2]; Dog 1, 0.5 hours, oral capsule, 100 mg in terms of the free form) was 428 ng/mL, the “PLASMA CONCENTRATION” value ([2]; Dog 1, 1 hour, oral capsule, 100 mg in terms of the free form) was 506 ng/mL and the “PLASMA CONCENTRATION” value ([2]; Dog 1, 2 hours, oral capsule, 100 mg in terms of the free form) was 343 ng/mL. For the same compound, the “PLASMA CONCENTRATION” value ([2]; Dog 1, 4 hours, oral capsule, 100 mg in terms of the free form) was 219 ng/mL, the “PLASMA CONCENTRATION” value ([2]; Dog 1, 6 hours, oral capsule, 100 mg in terms of the free form) was 158 ng/mL and the “PLASMA CONCENTRATION” value ([2]; Dog 1, 8 hours, oral capsule, 100 mg in terms of the free form) was 134 ng/mL. The “PLASMA CONCENTRATION” value ([2]; Dog 1, 24 hours, oral capsule, 100 mg in terms of the free form) was 102 ng/mL, the “AREA UNDER PLASMA CONCENTRATION-TIME CURVE” value ([2]; Dog 1, oral capsule, 100 mg in terms of the free form) was 3830 ng·h/mL and the “PLASMA CONCENTRATION” value ([2]; Dog 2, 0.25 hours, oral capsule, 100 mg in terms of the free form) was “BQL”. The “PLASMA CONCENTRATION” value ([2]; Dog 2, 0.5 hours, oral capsule, 100 mg in terms of the free form) was 140 ng/mL, the “PLASMA CONCENTRATION” value ([2]; Dog 2, 1 hour, oral capsule, 100 mg in terms of the free form) was 457 ng/mL and the “PLASMA CONCENTRATION” value ([2]; Dog 2, 2 hours, oral capsule, 100 mg in terms of the free form) was 469 ng/mL. For the same compound, the “PLASMA CONCENTRATION” value ([2]; Dog 2, 4 hours, oral capsule, 100 mg in terms of the free form) was 313 ng/mL, the “PLASMA CONCENTRATION” value ([2]; Dog 2, 6 hours, oral capsule, 100 mg in terms of the free form) was 224 ng/mL and the “PLASMA CONCENTRATION” value ([2]; Dog 2, 8 hours, oral capsule, 100 mg in terms of the free form) was 199 ng/mL. For the same compound, the “PLASMA CONCENTRATION” value ([2]; Dog 2, 24 hours, oral capsule, 100 mg in terms of the free form) was 23 ng/mL, the “AREA UNDER PLASMA CONCENTRATION-TIME CURVE” value ([2]; Dog 2, oral capsule, 100 mg in terms of the free form) was 4160 ng·h/mL and the “PLASMA CONCENTRATION” value ([2]; Dog 3, 0.5 hours, oral capsule, 100 mg in terms of the free form) was 377 ng/mL. For the same compound, the “PLASMA CONCENTRATION” value ([2]; Dog 3, 1 hour, oral capsule, 100 mg in terms of the free form) was 422 ng/mL, the “PLASMA CONCENTRATION” value ([2]; Dog 3, 2 hours, oral capsule, 100 mg in terms of the free form) was 337 ng/mL and the “PLASMA CONCENTRATION” value ([2]; Dog 3, 4 hours, oral capsule, 100 mg in terms of the free form) was 272 ng/mL. The “PLASMA CONCENTRATION” value ([2]; Dog 3, 6 hours, oral capsule, 100 mg in terms of the free form) was 217 ng/mL, the “PLASMA CONCENTRATION” value ([2]; Dog 3, 8 hours, oral capsule, 100 mg in terms of the free form) was 147 ng/mL and the “PLASMA CONCENTRATION” value ([2]; Dog 3, 24 hours, oral capsule, 100 mg in terms of the free form) was 20 ng/mL. The “AREA UNDER PLASMA CONCENTRATION-TIME CURVE” value ([2]; Dog 3, oral capsule, 100 mg in terms of the free form) was 3490 ng·h/mL, the “PLASMA CONCENTRATION” value ([2]; Dog 4, 0.25 hours, oral capsule, 100 mg in terms of the free form) was “BQL” and the “PLASMA CONCENTRATION” value ([2]; Dog 4, 1 hour, oral capsule, 100 mg in terms of the free form) was 422 ng/mL. The “PLASMA CONCENTRATION” value ([2]; Dog 4, 2 hours, oral capsule, 100 mg in terms of the free form) was 401 ng/mL, the “PLASMA CONCENTRATION” value ([2]; Dog 4, 4 hours, oral capsule, 100 mg in terms of the free form) was 322 ng/mL and the “PLASMA CONCENTRATION” value ([2]; Dog 4, 6 hours, oral capsule, 100 mg in terms of the free form) was 248 ng/mL. The “PLASMA CONCENTRATION” value ([2]; Dog 4, 8 hours, oral capsule, 100 mg in terms of the free form) was 210 ng/mL, the “PLASMA CONCENTRATION” value ([2]; Dog 4, 24 hours, oral capsule, 100 mg in terms of the free form) was 74 ng/mL and the “AREA UNDER PLASMA CONCENTRATION-TIME CURVE” value ([2]; Dog 4, oral capsule, 100 mg in terms of the free form) was 4540 ng·h/mL. The concentration at 0.25 h ([2]; beagle, dog, plasma, po, 100 mg, Dog 3, 0.25 hours, oral capsule, 100 mg in terms of the free form) was 279 ng/mL, the concentration at 0.5 h ([2]; beagle, dog, plasma, po, 100 mg, Dog 4, 0.5 hours, oral capsule, 100 mg in terms of the free form) was 6 ng/mL and the “AREA UNDER PLASMA CONCENTRATION-TIME CURVE, MEAN” value ([2]; oral capsule, 100 mg in terms of the free form, Monomaleate Salt) was 4000 ± 450 ng·h/mL. The “AREA UNDER PLASMA CONCENTRATION-TIME CURVE, MEAN” value ([2]; oral capsule, 100 mg in terms of the free form, listed as EXAMPLE 1, Monomaleate Salt) was 4000 ng·h/mL, the “PLASMA CONCENTRATION MEAN” value ([2]; 0.5 hours, oral capsule, 100 mg in terms of the free form) was 315 ng/mL and the “PLASMA CONCENTRATION MEAN” value ([2]; 1 hour, oral capsule, 100 mg in terms of the free form) was 452 ng/mL. For the same compound, the “PLASMA CONCENTRATION MEAN” value ([2]; 2 hours, oral capsule, 100 mg in terms of the free form) was 388 ng/mL, the “PLASMA CONCENTRATION MEAN” value ([2]; 4 hours, oral capsule, 100 mg in terms of the free form) was 282 ng/mL and the “PLASMA CONCENTRATION MEAN” value ([2]; 6 hours, oral capsule, 100 mg in terms of the free form) was 212 ng/mL. For the same compound, the “PLASMA CONCENTRATION MEAN” value ([2]; 8 hours, oral capsule, 100 mg in terms of the free form) was 172 ng/mL, the “PLASMA CONCENTRATION MEAN” value ([2]; 24 hours, oral capsule, 100 mg in terms of the free form) was 55 ng/mL and the “absorption rate compared with compound (I)” value ([2]; oral capsule to beagle dogs, crossover) was “higher”.
